Values joined by “and” are separate entries in the source; they are usually repeats but may differ in a detail not shown here. Equal entries are not always repeated. Each block holds one molecule with its values, some of them ahead of it.
Legend:
[1] = test system: Melanoderm tissue model MEL 300 A; test: Viability by MTT assay (MatTek MTT ET-50 protocol); type: cell-based, human; conditions: for MTT reading (individual readings): listed as DP2/DMI
Text: (§1) This example illustrates cell viability properties and efficacy of skin lightening formulations according to the present invention. For purposes of these examples, DP2 and DP15 both refer to a bis-ascorbyl ester of a (10-carboxydecyl)-terminated dimethylsiloxane, but with the former having two degrees of polymerization, and the latter having an average of 15 degrees of polymerization (15+/−5). In particular, three formulations according to the present invention, water (a negative control), 1% kojic acid (Sigma, Wis.) in water (positive control), and 2.3% ascorbyl palmitate in DMI (dimethyl isosorbide from Uniqema Americas, representative of a currently commercially available skin-lightening compound), were assayed and compared for cell viability and skin lightening efficacy (see Table 4). The assays were carried out using Melanoderm tissue model MEL 300 A cell line (MelanoDerm™ tissue model available from MatTek, Ashland, Mass.). This melanoderm model consists of normal, human-derived epidermal keratinocytes and melanocytes that have been co-cultured to form a multilayer, highly differentiated model of human epidermis.
Duplicate samples of each of the formulations in Table 4 were dosed and tested for 48 hours for cell viability by MTT assay (MatTek MTT ET-50 protocol). The volume of water and kojic acid used was 25 ul.

[2] = Dispersibility in carriers (caprylic/capric triglyceride, cyclopentasiloxane, deionized water); type: physicochemical
Experimental: a) Approximately 7.2 g of a sample of a material of the present invention comprising an undecyl ascorbate group on one end of the short chain dimethylsiloxane (Formula=Si(CH3)3-[Si(CH3)2]8—[CH2]10—COO-Ascorbate), with a calculated molecular weight of 1082) was weighed into a glass vial. Liponate CG (INCI name: caprylic/capric triglyceride) was added to the vial to bring the net weight to 20 g. The vial was warmed in a water bath set at 50° C. […] A sample of ascorbyl palmitate obtained from DSM was also tested for dispersibility in Liponate CG. Several concentrations were tested. The lowest concentration tested was made by weighing approximately 2.3 g of ascorbyl palmitate into a glass vial and then adding caprylic/capric triglyceride to bring the net weight to 20 g. […] The silicone was added to the vial to bring the net weight to 20 g. […] This mixture thickened upon cooling to room temperature. To determine if the mixture was a stable dispersion or an unstable suspension, the mixture was centrifuged in a bench top laboratory centrifuge at 3000 rpm for approximately 30 minutes. […] The amount of white material was small (much less than the amount of siloxane undecyl ascorbate that was used) and it was later determined that the white material was most likely unreacted ascorbic acid. A sample of ascorbyl palmitate obtained from DSM was tested for dispersibility in Dow Corning® 245 Fluid. Several concentrations were tested. The lowest concentration tested was made by weighing approximately 2.3 g of ascorbyl palmitate into a glass vial and then adding Dow Corning® 245 Fluid to bring the net weight to 20 g. […] Deionized water was added to bring the total net weight to 3.5 g. The vial was placed in a water bath set at 60° C. and the disiloxane material began to disperse after a few minutes. The vial was pulled out of the water bath periodically over the next 10-15 minutes. […] Upon cooling the vial was examined to determine if all of the test material had been dispersed. It was difficult to tell due to the hazy appearance of the sample. The experiment was repeated with approximately 0.17 of the disiloxane diluted to 3.5 g with deionized water. […] Ascorbyl palmitate obtained from DSM was tested for dispersibility in deionized water.

[3] = test system: Melanoderm tissue model MEL 300 A; test: Melanin content / skin lightening assay in MelanoDerm tissue model; type: cell-based, human; conditions: for Melanin concentration vs. water: Day 10, after 6 applications; for Melanin Concentration at Day 10 (Avg.): after 6 applications, 10 μL in DMI (kojic acid 25 μL, 1% in water)
Text: as §1
Table 6 (see FIG. 4(a)) sets forth the […] after 6 applications of each formulation as indicated. Melanin concentration (ug/ml) was lower (p<0.05) in the positive control (kojic acid) and in Ascorbyl palmitate, DP2, and DP2+ascorbic acid. Table 7 (see FIG. 4(b) also sets forth the melanocyte concentration on Day 10, after six applications of the test formulations. Melanin concentration (ug/ml) was higher (p<0.05) in DP2, with no difference from DP2+ascorbic acid or DPI 5. However, p value for DP15 had high variability and statistical difference was borderline (p=0.06)

[4] = approximately 2.3 g brought to 20 g (lowest concentration), 50° C. to 90° C. for 20-30 minutes
[5] = first duplicate sample, 10 uL dose, 48 hours
[6] = second duplicate sample, 10 uL dose, 48 hours

dispersibility in Dow Corning 245 Fluid (cyclopentasiloxane) [2, 4]: would not disperse | dispersibility in Liponate CG (caprylic/capric triglyceride) [2, 4]: would not disperse | dispersibility in deionized water ([2]; concentrations comparable to those tested for the disiloxane test material): not dispersible
SMILES: CCCCCCCCCCCCCCCC(=O)OC[C@H](O)[C@H]1OC(=O)C(O)=C1O [Ascorbyl Palmitate, Ascorbyl palmitate, reference compound]
% Viability (total average) ([1]; human, 48 h, 2.3 %): 96.04% | Total average (MTT reading) ([1]; human, 48 h, 2.3 %): 1.4495 | Melanin concentration vs. water ([3]; p<0.05): lower | Melanin Concentration at Day 10 (Avg.) [3]: 34.14 µg/mL

SMILES: C[Si](C)(CCCCCCCCCCC(=O)OCC(O)C1OC(=O)C(O)=C1O)O[Si](C)(C)CCCCCCCCCCC(=O)OCC(O)C1OC(=O)C(O)=C1O (stereo not shown) [DP2, bis-ascorbyl ester of a (10-carboxydecyl)-terminated dimethylsiloxane]
cytotoxicity ([1]; 10 uL dose, in DMI): does not cause cytotoxicity | Total average (MTT reading) ([1]; both duplicate samples, 10 uL dose, 48 hours): 1.514 | % Viability (total average) ([1]; both duplicate samples, vs water, 10 uL dose, 48 hours): 100.31% | Average (MTT reading) [1, 5]: 1.417 | MTT reading (individual readings) [1, 5]: 1.433 and 1.401 | % Viability ([1]; first duplicate sample, vs water, 10 uL dose, 48 hours): 91.24% | cell viability ([1]; in DMI): > 90% | Average (MTT reading) [1, 6]: 1.611 | MTT reading (individual readings) [1, 6]: 1.619 and 1.603 | % Viability ([1]; second duplicate sample, vs water, 10 uL dose, 48 hours): 109.93% | dispersibility in deionized water ([2]; approximately 0.17 diluted to 3.5 g, warmed in water bath): thinner, less hazy dispersion | dispersibility in deionized water ([2]; approximately 0.35 g brought to 3.5 g, water bath 60° C.): thick hazy dispersion | stability of dispersions in deionized water ([2]; both dispersions, no sign of separation or settling): stable for several weeks | Melanin concentration vs. water ([3]; p<0.05): lower | Melanin concentration vs. ascorbyl palmitate ([3]; Day 10, after six applications, p<0.05): higher | Melanin Concentration at Day 10 (Avg.) [3]: 44.40 µg/mL

SMILES: O=c1cc(CO)occ1O [Kojic Acid, kojic acid]
Melanin concentration vs. water ([3]; p<0.05): lower | Melanin Concentration at Day 10 (Avg.) [3]: 25.20 µg/mL
